Like-named read-outs stand apart in the source and are kept apart here.
How the values were obtained:
[1] = biological target: Bcl-xL (Homo sapiens, UniProt Q07817); assay: Time Resolved-Fluorescence Resonance Energy Transfer (TR-FRET) binding assay, competition with probe F-Bak
Method: Tb-anti-GST antibody was purchased from Invitrogen (Catalog No. PV4216).
For the assay, test compounds were serially diluted in DMSO starting at 50 μM (2× starting concentration; 10% DMSO) and 10 μL transferred into a 384-well plate. 10 μL of a protein/probe/antibody mix was then added to each well at final concentrations listed below:
The samples were then mixed on a shaker for 1 minute and incubated for an additional 2 hours at room temperature. For each assay plate, a probe/antibody and protein/antibody/probe mixture were included as a negative and a positive control, respectively. Fluorescence was measured on the Envision (Perkin Elmer) using a 340/35 nm excitation filter and 520/525 (F-Bak) and 495/510 nm (Tb-labeled anti-his antibody) emission filters. Dissociation constants (Ki) were determined using Wang's equation (Wang, 1995, FEBS Lett. 360:111-114). The TR-FRET assay can be performed in the presence of varying concentrations of human serum (HS) or fetal bovine serum (FBS). Compounds were tested both without HS and in the presence of 1% HS.

[2] = tested on: Molt-4 human acute lymphoblastic leukemia cells; assay: Molt-4 cell viability assay (CellTiter-Glo, 48 hours, 10% HS); format: cell-based; conditions: Homo sapiens, MOLT-4, 48 h, non-permeabilized cells
Method: The ability of Bcl-xL inhibitors that are able to traverse cell membranes to inhibit Bcl-xL can be determined in cell-based killing assays using a variety of cell lines and mouse tumor models. For example, their activity on cell viability can be assessed on a panel of cultured tumorigenic and non-tumorigenic cell lines, as well as primary mouse or human cell populations.
In one exemplary set of conditions, Molt-4 (ATCC, Manassas, VA) human acute lymphoblastic leukemia cells were plated 12,500 cells per well in 384-well tissue culture plates (Corning, Corning, NY) in a total volume of 25 μL tissue culture medium supplemented with 10% human serum (Sigma-Aldrich, St. Louis, MO) and treated with a 3-fold serial dilution of the compounds of interest from 10 μM to 0.0005 μM. Each concentration was tested in duplicate at least 3 separate times. The number of viable cells following 48 hours of compound treatment was determined using the CellTiter-Glo®, Luminescent Cell Viability Assay according to the manufacturer's recommendations (Promega Corp., Madison, WI). Compounds were tested in the presence of 10% HS.

[3] = in the presence of 1% HS, read-out: Bcl-xL Binding Ki (nM, 1% HS)
[4] = without HS, read-out: Bcl-xL Binding Ki

Bcl-xL, sequence (Q07817 whole entry): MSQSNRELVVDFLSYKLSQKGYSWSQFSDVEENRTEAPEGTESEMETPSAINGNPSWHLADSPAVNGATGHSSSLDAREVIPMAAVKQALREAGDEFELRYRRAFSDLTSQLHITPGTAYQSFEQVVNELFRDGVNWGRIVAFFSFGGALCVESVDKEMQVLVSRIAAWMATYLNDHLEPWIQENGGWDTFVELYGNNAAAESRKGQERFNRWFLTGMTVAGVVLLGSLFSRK

SMILES	Ki [1, 3] [nM]	Ki [1, 4] [nM]	EC50 [2] [nM]
Cc1c(-c2ccc(N3CCc4cccc(C(=O)Nc5nc6ccccc6s5)c4C3)nc2C(=O)O)cnn1CC12CC3(C)CC(C)(C1)CC(OCCN(C)C(=O)[C@@H](N)CCCCN(C)C)(C3)C2 [Example 1.63, 6-[8-(1,3-benzothiazol-2-ylcarbamoyl)-3,4-dihydroisoquinolin-2 (1H)-yl]-3-{1-[(3-{2-[(N′,N′-dimethyl-L-lysyl)(methyl)amino]ethoxy}-5,7-dimethyltricyclo[3.3.1.1^3,7]dec-1-yl)methyl]-5-methyl-1H-pyrazol-4-yl}pyridine-2-carboxylic acid]	< 0.01	< 0.01	2.22
Cc1c(-c2ccc(N3CCc4cccc(C(=O)Nc5nc6ccccc6s5)c4C3)nc2C(=O)O)cnn1CC12CC3(C)CC(C)(C1)CC(OCCN(CCN)CCS(=O)(=O)O)(C3)C2 [Example 1.33, 3-{1-[(3-{2-[(2-aminoethyl)(2-sulfoethyl)amino]ethoxy}-5,7-dimethyltricyclo[3.3.1.1^3,7]dec-1-yl)methyl]-5-methyl-1H-pyrazol-4-yl}-6-[8-(1,3-benzothiazol-2-ylcarbamoyl)-3,4-dihydroisoquinolin-2 (1H)-yl]pyridine-2-carboxylic acid]	0.12	< 0.001	319
Cc1c(-c2ccc(N3CCc4cccc(C(=O)Nc5nc6ccccc6s5)c4C3)nc2C(=O)O)cnn1CC12CC3(C)CC(C)(C1)CC(OCCNCCS(=O)(=O)N[C@H]1C(O)O[C@H](CO)[C@@H](O)[C@@H]1O)(C3)C2 (stereo partly drawn) [Example 1.3, 2-{[(2-{[2-({3-[(4-{6-[8-(1,3-benzothiazol-2-ylcarbamoyl)-3,4-dihydroisoquinolin-2 (1H)-yl]-2-carboxypyridin-3-yl}-5-methyl-1H-pyrazol-1-yl)methyl]-5,7-dimethyltricyclo[3.3.1.1^3,7]dec-1-yl)oxy)ethyl]amino)ethyl)sulfonyl]amino}-2-deoxy-D-glucopyranose]	0.18	0.0011	23
Cc1c(-c2ccc(N3CCc4c(CC5O[C@H](CO)[C@@H](O)[C@H](O)[C@H]5O)ccc(C(=O)Nc5nc6ccccc6s5)c4C3)nc2C(=O)O)cnn1CC12CC3(C)CC(C)(C1)CC(OCCN)(C3)C2 (stereo partly drawn) [Example 1.55, (1ξ)-1-({2-[5-(1-{[3-(2-aminoethoxy)-5,7-dimethyltricyclo[3.3.1.1^3,7]dec-1-yl]methyl}-5-methyl-1H-pyrazol-4-yl)-6-carboxypyridin-2-yl]-8-(1,3-benzothiazol-2-ylcarbamoyl)-1,2,3,4-tetrahydroisoquinolin-5-yl}methyl)-1,5-anhydro-D-glucitol]	0.039	0.039	73
Cc1c(-c2ccc(N3CCc4cccc(C(=O)Nc5nc6ccccc6s5)c4C3)nc2C(=O)O)cnn1CC12CC3(C)CC(C)(C1)CC(OCCN(CCCN)CCS(=O)(=O)O)(C3)C2 [Example 1.61, 3-{1-[(3-{2-[(3-aminopropyl)(2-sulfoethyl)amino]ethoxy}-5,7-dimethyltricyclo[3.3.1.1^3,7]dec-1-yl)methyl]-5-methyl-1H-pyrazol-4-yl}-6-[8-(1,3-benzothiazol-2-ylcarbamoyl)-3,4-dihydroisoquinolin-2 (1H)-yl]pyridine-2-carboxylic acid]	0.097	< 0.001	255
CNCCOC12CC3(C)CC(C)(CC(Cn4ncc(-c5ccc(N6CCc7c(OCCCP(=O)(O)O)ccc(C(=O)Nc8nc9ccccc9s8)c7C6)nc5C(=O)O)c4C)(C3)C1)C2 [Example 1.31, 6-[8-(1,3-benzothiazol-2-ylcarbamoyl)-5-(3-phosphonopropoxy)-3,4-dihydroisoquinolin-2 (1H)-yl]-3-[1-({3,5-dimethyl-7-[2-(methylamino)ethoxy]tricyclo[3.3.1.1^3,7]dec-1-yl}methyl)-5-methyl-1H-pyrazol-4-yl]pyridine-2-carboxylic acid]	0.055	< 0.001	446
CNCCOC12CC3(C)CC(C)(CC(Cn4ncc(-c5ccc(N6CCc7c(OCCN)ccc(C(=O)Nc8nc9ccccc9s8)c7C6)nc5C(=O)O)c4C)(C3)C1)C2 [Example 1.34, 6-[5-(2-aminoethoxy)-8-(1,3-benzothiazol-2-ylcarbamoyl)-3,4-dihydroisoquinolin-2 (1H)-yl]-3-[1-({3,5-dimethyl-7-[2-(methylamino)ethoxy]tricyclo[3.3.1.1^3,7]dec-1-yl}methyl)-5-methyl-1H-pyrazol-4-yl]pyridine-2-carboxylic acid]	0.031	–	87.7
Cc1c(-c2ccc(N3CCc4cccc(C(=O)Nc5nc6ccccc6s5)c4C3)nc2C(=O)O)cnn1CC12CC3(C)CC(C)(C1)CC(OCCNC[C@H](O)[C@H](O)[C@@H](O)[C@H](O)[C@H](O)CO)(C3)C2 [Example 1.82]	0.46	0.023	373
Cc1c(-c2ccc(-c3ccc4c(c3)N(C(=O)Nc3nc5ccccc5s3)CCO4)nc2C(=O)O)cnn1CC12CC3(C)CC(C)(C1)CC(OCCNCCS(=O)(=O)O)(C3)C2 [Example 1.51, 6-[4-(1,3-benzothiazol-2-ylcarbamoyl)-3,4-dihydro-2H-1,4-benzoxazin-6-yl]-3-{1-[(3,5-dimethyl-7-{2-[(2-sulfoethyl)amino]ethoxy}tricyclo[3.3.1.1^3,7]dec-1-yl)methyl]-5-methyl-1H-pyrazol-4-yl}pyridine-2-carboxylic acid]	0.17	< 0.001	555
Cc1c(-c2ccc(N3CCc4cccc(C(=O)Nc5nc6ccccc6s5)c4C3)nc2C(=O)O)cnn1CC12CC3(C)CC(C)(C1)CC(OCCNCCCC(=O)O)(C3)C2 [Example 1.56, 6-[8-(1,3-benzothiazol-2-ylcarbamoyl)-3,4-dihydroisoquinolin-2 (1H)-yl]-3-{1-[(3-{2-[(3-carboxypropyl)amino]ethoxy}-5,7-dimethyltricyclo[3.3.1.1^3,7]dec-1-yl)methyl]-5-methyl-1H-pyrazol-4-yl}pyridine-2-carboxylic acid]	0.123	< 0.001	196
Cc1c(-c2ccc(N3CCc4cccc(C(=O)Nc5nc6ccccc6s5)c4C3)nc2C(=O)O)cnn1CC12CC3(C)CC(C)(C1)CC(OCCNS(=O)(=O)CCCNC(CO)CO)(C3)C2 [Example 1.83]	0.66	0.031	178
Cc1c(-c2ccc(-c3ccc4cccc(C(=O)Nc5nc6ccccc6s5)c4c3)nc2C(=O)O)cnn1CC12CC3(C)CC(C)(C1)CC(OCCNCCC(=O)O)(C3)C2 [Example 1.68, 6-[8-(1,3-benzothiazol-2-ylcarbamoyl)naphthalen-2-yl]-3-(1-[(3-{2-[(2-carboxyethyl)amino]ethoxy}-5,7-dimethyltricyclo[3.3.1.1^3,7]dec-1-yl)methyl]-5-methyl-1H-pyrazol-4-yl}pyridine-2-carboxylic acid]	0.32	< 0.01	346
Cc1c(-c2ccc(-c3ccc4cccc(C(=O)Nc5nc6ccccc6s5)c4c3)nc2C(=O)O)cnn1CC12CC3(C)CC(C)(C1)CC(OCCNCCS(=O)(=O)O)(C3)C2 [Example 1.43, 6-[8-(1,3-benzothiazol-2-ylcarbamoyl)naphthalen-2-yl]-3-{1-[(3,5-dimethyl-7-{2-[(2-sulfoethyl)amino]ethoxy}tricyclo[3.3.1.1^3,7]dec-1-yl)methyl]-5-methyl-1H-pyrazol-4-yl}pyridine-2-carboxylic acid]	0.86	< 0.001	185
Cc1c(-c2ccc(N3CCc4cccc(C(=O)Nc5nc6ccccc6s5)c4C3)nc2C(=O)O)cnn1CC12CC3(C)CC(C)(C1)CC(OCCNC1CCN(CC(=O)O)CC1)(C3)C2 [Example 1.28, 6-[8-(1,3-benzothiazol-2-ylcarbamoyl)-3,4-dihydroisoquinolin-2 (1H)-yl]-3-(1-{[3-(2-{[1-(carboxymethyl)piperidin-4-yl]amino}ethoxy)-5,7-dimethyltricyclo[3.3.1.1^3,7]dec-1-yl]methyl}-5-methyl-1H-pyrazol-4-yl}pyridine-2-carboxylic acid]	0.046	< 0.001	568
Cc1c(-c2ccc(N3CCc4cccc(C(=O)Nc5nc6ccccc6s5)c4C3)nc2C(=O)O)cnn1CC12CC3(C)CC(C)(C1)CC(OCCN(CCC(=O)O)C1CCNCC1)(C3)C2 [Example 1.36, 6-[8-(1,3-benzothiazol-2-ylcarbamoyl)-3,4-dihydroisoquinolin-2 (1H)-yl]-3-{1-[(3-{2-[(2-carboxyethyl)(piperidin-4-yl)amino]ethoxy}-5,7-dimethyltricyclo[3.3.1.1^3,7]dec-1-yl)methyl]-5-methyl-1H-pyrazol-4-yl}pyridine-2-carboxylic acid]	0.0635	< 0.001	405

Source: patent US20240058450A1, “BCL-XL Inhibitory Compounds Having Low Cell Permeability and Antibody Drug Conjugates Including the Same” (AbbVie Inc., priority 2014, published 2024)
